Values joined by “and” are separate entries in the source; they are usually repeats but may differ in a detail not shown here. Identical values can stand only once. Active and inactive are the calls of the source.
Experiments:
[1] = NIH-3T3 fibroblast cytotoxicity, dose response, cytotoxicity control, cell-based, fluorescence, Alamar Blue, secondary assay (AID 2327); format: functional;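 further: NIH-3T3 mouse fibroblasts cultured with fluconazole at 8 µg/mL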
[2] = fluconazole-exposed Candida albicans growth modulators – fluorescence, retest, confirmation (AID 2467); format: functional, cell-based
[3] = molecular target: Serine/threonine-protein phosphatase (Candida dubliniensis (strain CD36 / CBS 7987 / NCPF 3949 / NRRLY-17841) (Yeast), UniProt B9W6M3); test: blockers of CaCl2-induced CDRE-lacZ signaling – S. cerevisiae, luminescence, secondary, dose response (AID 2388); format: functional, cell-based;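 further: yeast reporter cells carrying a calcineurin-responsive lacZ construct stimulated with calcium chloride; luminescent beta-galactosidase reporter signal in whole cells rather than isolated phosphatase activity; potency for inhibition where a drop in reporter signal means calcineurin blockade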
[4] = molecular target: ATP-dependent molecular chaperone HSP82 (Candida albicans (strain WO-1) (Yeast), UniProt C4YTQ8); test: steroid-induced GRE reporter decrease in yeast – S. cerevisiae, luminescence, Hsp90 inhibitor project, dose response (AID 2400); format: functional, cell-based;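 further: beta-galactosidase luminescence from glucocorticoid response element reporter as proxy for Hsp90 function; inhibitor potency where signal loss means Hsp90 inhibition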
[5] = blockers of HIV-1 envelope-mediated cell-cell fusion – cherry-pick, dose response (AID 652057); format: functional, cell-based
[6] = viability loss in CEM21 cells – cell-based, CellTiter-Glo luminescence, cherry-picked, cytotoxicity control for viral fusion inhibitor project, dose response (AID 652042); format: functional;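 further: potency for signal decrease meaning cytotoxicity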
[7] = blockers of HIV-1 ZM109 envelope-driven cell-cell fusion – HeLa effector, CEM target cells, luciferase, cherry-pick, dose response (AID 652058); format: functional, cell-based;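 further: luciferase signal from HIV-1 Env mediated cell-cell fusion of effector and target cells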
[8] = off-target signal loss in HeLa-CEM21 co-culture – HeLa F-luc CTL cells, cherry-picked, counter-screen for HIV-1 Env fusion inhibitor project, dose response (AID 652040); format: functional, cell-based;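 further: potency for signal decrease marking cytotoxic or nonspecific inhibition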
[9] = HIV-1 AD8 envelope cell-cell fusion blockers – cherry-pick, dose response (AID 652062); format: functional, cell-based;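 further: luciferase signal from cell-cell fusion driven by HIV-1 clade B AD8 Env; potency is for inhibitors of fusion seen as a drop in luminescence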
[10] = molecular target: T1, Endoribonuclease toxin MazF (Escherichia coli K-12, UniProt P0AE70); test: activation of MazEF endoribonuclease cleavage – biochemical, fluorescence, single-stranded RNA substrate, uHTS hits, dose response (AID 588481); format: functional
T1 sequence (P0AE70 whole entry): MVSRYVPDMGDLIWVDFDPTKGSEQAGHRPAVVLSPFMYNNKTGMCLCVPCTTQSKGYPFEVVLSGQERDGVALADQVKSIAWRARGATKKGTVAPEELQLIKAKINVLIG

[11] = molecular target: T1, Endoribonuclease toxin MazF; test: substrate-only fluorescence increase artefacts – biochemical, single-stranded RNase substrate, counter-screen for MazEF activator project, dose response (AID 588502); format: functional
INS1 = test: INS-1E survival protection against cytokine death – cell-based, luminescence, retest, dose response (AID 449756); format: functional; conditions: Rattus norvegicus;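 further: cell death triggered by IL-1 beta plus TNF-alpha plus IFN-gamma mixture; protective hits raise ATP signal compared with cytokine alone wells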
HEK293 [12] = test: cells; format: functional, cell-based; conditions: Homo sapiens
[13] = molecular target: T2, Nuclear receptor subfamily 0 group B member 1 (Homo sapiens, UniProt P51843); test: Luminescence-based cell-based high throughput dose response assay for inhibitors of the orphan nuclear receptor subfamily 0, group B, member 1 (DAX1; NR0B1). [Related pubchem assays (depositor defined):AID504766, AID504790]; format: functional
T2 sequence (P51843 whole entry): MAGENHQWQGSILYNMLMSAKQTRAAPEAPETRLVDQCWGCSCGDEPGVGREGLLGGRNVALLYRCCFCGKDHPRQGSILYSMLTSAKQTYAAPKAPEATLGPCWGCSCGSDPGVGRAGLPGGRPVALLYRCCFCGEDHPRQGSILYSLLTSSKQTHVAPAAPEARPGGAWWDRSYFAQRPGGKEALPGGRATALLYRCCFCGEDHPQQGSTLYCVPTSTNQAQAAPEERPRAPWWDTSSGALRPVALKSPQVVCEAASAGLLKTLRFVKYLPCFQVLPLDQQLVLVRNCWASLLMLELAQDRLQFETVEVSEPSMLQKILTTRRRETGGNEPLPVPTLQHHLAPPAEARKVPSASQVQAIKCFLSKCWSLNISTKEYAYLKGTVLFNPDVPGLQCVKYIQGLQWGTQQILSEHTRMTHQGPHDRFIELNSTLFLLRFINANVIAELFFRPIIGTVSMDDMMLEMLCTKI

[14] = molecular target: DNA dC->dU-editing enzyme APOBEC-3A (Homo sapiens, UniProt P31941); test: A3A deaminase inhibition for selectivity – biochemical, dose response (AID 504722); format: functional
[15] = molecular target: T3, Dual specificity protein phosphatase 3 (Homo sapiens, UniProt P51452); test: SAR VHR1 absorbance Assay for In Vitro dose response studies. [Related pubchem assays (depositor defined):AID1654, AID1661, AID1878, AID1992, AID2004]
[16] = molecular target: T3, Dual specificity protein phosphatase 3; test: SAR VHR1 Fluorescent Assay for In Vitro dose response studies. [Related pubchem assays (depositor defined):AID1654, AID1661, AID1878, AID1992, AID2004, AID2070, AID2085]; format: functional
[17] = molecular target: T4, Tyrosine-protein phosphatase non-receptor type 7 (Homo sapiens, UniProt P35236); test: redox-active compounds inhibiting HePTP phosphatase – biochemical, fluorescence, mechanism study (AID 2068); format: functional
T4 sequence (P35236 whole entry): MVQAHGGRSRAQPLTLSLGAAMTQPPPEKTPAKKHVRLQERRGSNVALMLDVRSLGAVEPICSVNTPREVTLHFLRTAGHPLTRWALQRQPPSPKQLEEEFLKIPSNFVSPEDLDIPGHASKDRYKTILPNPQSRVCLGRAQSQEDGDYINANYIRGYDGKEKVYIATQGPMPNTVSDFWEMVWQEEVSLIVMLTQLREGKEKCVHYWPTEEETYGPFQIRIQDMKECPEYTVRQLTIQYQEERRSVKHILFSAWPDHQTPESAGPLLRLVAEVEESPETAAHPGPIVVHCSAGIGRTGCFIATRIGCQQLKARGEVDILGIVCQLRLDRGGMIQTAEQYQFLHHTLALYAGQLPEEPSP

[18] = molecular target: T5, Dual specificity protein phosphatase 6 (Rattus norvegicus, UniProt Q64346); test: SAR analysis of inhibitors of MKP-3 - Set 2. [Related pubchem assays (depositor defined):AID1055, AID1661, AID425, AID553, AID566]; format: functional
T5 sequence (Q64346 whole entry): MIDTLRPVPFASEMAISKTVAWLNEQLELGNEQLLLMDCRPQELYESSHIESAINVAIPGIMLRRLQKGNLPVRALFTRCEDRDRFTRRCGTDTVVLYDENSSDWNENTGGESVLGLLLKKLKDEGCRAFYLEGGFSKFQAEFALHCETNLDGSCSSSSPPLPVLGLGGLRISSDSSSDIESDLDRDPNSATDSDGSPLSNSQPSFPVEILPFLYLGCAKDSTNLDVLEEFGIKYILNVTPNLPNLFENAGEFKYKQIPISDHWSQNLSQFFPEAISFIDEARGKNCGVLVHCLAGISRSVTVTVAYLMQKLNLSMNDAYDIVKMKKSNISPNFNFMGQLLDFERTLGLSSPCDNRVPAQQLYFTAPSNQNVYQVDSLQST

[19] = molecular target: T4, Tyrosine-protein phosphatase non-receptor type 7; test: inhibition of hematopoietic tyrosine phosphatase HePTP – biochemical, set 2, SAR follow-up (AID 449736); format: functional
[20] = molecular target: DNA dC->dU-editing enzyme APOBEC-3G (Homo sapiens, UniProt Q9HC16); test: Dose Response confirmation of small molecule APOBEC3G DNA Deaminase Inhibitors via a fluorescence-based single-stranded DNA deaminase assay. [Related pubchem assays (depositor defined):AID493012, AID493028]; format: functional
[21] = molecular target: T4, Tyrosine-protein phosphatase non-receptor type 7; test: SAR analysis of chemical inhibitors of HePTP using a Fluorescent assay - Set 2. [Related pubchem assays (depositor defined):AID1059, AID1077, AID1661, AID2085, AID521]; format: functional
[22] = molecular target: T3, Dual specificity protein phosphatase 3; test: SAR VHR1 Fluorescent Assay for In Vitro dose response studies Set 2. [Related pubchem assays (depositor defined):AID1654, AID1661, AID1878]; format: functional
[23] = molecular target: T5, Dual specificity protein phosphatase 6; format: functional
HEK293 [24] = test: inhibition of NOD1-driven NF-kB reporter – cell-based, luminescence, uHTS, primary screen (AID 1578); format: functional; conditions: Homo sapiens
HEK293 [25] = test: cells; format: functional, cell-based; conditions: Homo sapiens; remark: listed apart in the source
HEK293 [26] = test: cells; format: functional, cell-based; conditions: Homo sapiens; remark: listed apart in the source
HEK293 [27] = test: NOD2 signaling inhibitors in MDP-stimulated cells, cell-based, uHTS, luminescence (AID 2001); format: functional; conditions: Homo sapiens
Tumor necrosis factor = Tumor necrosis factor (Homo sapiens, UniProt P01375); test: analog potency on TNFa NF-kB signaling – cell-based, revised, SAR follow-up (AID 2337); format: functional
[28] = molecular target: T6, Nucleotide-binding oligomerization domain-containing protein 1 (Homo sapiens, UniProt Q9Y239); test: blockers of NOD1 pathway activity – revised, SAR follow-up (AID 2333); format: functional
T6 sequence (Q9Y239 whole entry): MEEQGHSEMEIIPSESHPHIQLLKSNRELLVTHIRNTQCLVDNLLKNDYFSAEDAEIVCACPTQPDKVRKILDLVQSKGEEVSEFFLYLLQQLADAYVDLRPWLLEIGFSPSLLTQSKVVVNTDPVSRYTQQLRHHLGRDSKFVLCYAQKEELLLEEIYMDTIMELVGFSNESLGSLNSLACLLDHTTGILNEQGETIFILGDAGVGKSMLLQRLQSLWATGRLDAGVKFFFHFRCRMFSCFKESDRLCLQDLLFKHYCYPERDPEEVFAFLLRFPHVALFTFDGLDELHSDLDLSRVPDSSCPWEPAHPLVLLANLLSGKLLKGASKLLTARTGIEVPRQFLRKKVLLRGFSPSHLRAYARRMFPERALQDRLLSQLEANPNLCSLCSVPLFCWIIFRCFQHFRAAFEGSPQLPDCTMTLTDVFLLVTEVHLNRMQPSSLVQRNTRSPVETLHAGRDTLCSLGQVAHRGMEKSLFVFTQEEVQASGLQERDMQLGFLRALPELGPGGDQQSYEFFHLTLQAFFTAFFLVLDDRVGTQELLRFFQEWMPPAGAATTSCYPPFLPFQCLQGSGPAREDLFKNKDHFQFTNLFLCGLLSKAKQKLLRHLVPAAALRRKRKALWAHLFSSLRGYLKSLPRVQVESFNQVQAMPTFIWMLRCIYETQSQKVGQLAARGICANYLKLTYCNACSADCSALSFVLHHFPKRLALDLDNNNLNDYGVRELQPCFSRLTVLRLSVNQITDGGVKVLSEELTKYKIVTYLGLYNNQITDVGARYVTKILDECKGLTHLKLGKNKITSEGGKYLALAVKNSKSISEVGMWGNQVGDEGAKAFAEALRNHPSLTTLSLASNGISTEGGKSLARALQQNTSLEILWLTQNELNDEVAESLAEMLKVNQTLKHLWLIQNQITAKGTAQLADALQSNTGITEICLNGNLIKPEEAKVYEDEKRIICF

HEK293 [29] = test: cells; conditions: Homo sapiens
[30] = molecular target: T7, Polyadenylate-binding protein 1 (Homo sapiens, UniProt P11940); test: MLLE binding blockers, Cy5 peptide tracer – biochemical, fluorescence polarization, Cy5-PAM2 peptide, secondary, miRNA deadenylation inhibitor project, dose response (AID 602260); format: functional; conditions: read-out: IC50_Mean
[31] = molecular target: T7, Polyadenylate-binding protein 1; test: MLLE domain peptide-binding blockers, IC50 – biochemical, fluorescence polarization, FITC-PAM2 peptide, dose response (AID 602259); format: functional; conditions: read-out: IC50_Mean

T3 sequence (P51452 whole entry): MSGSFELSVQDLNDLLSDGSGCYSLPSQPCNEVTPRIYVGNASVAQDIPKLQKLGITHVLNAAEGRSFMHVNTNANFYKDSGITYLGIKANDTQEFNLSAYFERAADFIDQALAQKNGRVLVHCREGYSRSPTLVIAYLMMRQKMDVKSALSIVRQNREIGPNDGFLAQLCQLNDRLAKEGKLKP
T7 sequence (P11940 whole entry, the tested form may be a part): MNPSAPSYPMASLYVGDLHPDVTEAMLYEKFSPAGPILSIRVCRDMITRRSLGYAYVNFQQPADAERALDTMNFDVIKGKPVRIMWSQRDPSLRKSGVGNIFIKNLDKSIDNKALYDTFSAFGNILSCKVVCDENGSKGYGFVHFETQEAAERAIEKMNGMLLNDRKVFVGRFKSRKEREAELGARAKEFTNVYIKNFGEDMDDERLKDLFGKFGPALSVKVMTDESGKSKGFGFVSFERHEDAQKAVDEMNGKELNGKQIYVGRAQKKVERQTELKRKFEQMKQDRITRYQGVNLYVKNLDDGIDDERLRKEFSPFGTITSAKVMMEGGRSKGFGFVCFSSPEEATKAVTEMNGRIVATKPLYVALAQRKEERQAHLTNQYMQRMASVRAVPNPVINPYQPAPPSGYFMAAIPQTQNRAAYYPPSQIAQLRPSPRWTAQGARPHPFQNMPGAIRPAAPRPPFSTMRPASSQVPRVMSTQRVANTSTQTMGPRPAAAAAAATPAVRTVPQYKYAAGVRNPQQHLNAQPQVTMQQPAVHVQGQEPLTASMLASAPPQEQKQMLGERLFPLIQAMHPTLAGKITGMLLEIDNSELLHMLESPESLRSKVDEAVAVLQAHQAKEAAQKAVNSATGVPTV
Sequence of Serine/threonine-protein phosphatase (B9W6M3 whole entry): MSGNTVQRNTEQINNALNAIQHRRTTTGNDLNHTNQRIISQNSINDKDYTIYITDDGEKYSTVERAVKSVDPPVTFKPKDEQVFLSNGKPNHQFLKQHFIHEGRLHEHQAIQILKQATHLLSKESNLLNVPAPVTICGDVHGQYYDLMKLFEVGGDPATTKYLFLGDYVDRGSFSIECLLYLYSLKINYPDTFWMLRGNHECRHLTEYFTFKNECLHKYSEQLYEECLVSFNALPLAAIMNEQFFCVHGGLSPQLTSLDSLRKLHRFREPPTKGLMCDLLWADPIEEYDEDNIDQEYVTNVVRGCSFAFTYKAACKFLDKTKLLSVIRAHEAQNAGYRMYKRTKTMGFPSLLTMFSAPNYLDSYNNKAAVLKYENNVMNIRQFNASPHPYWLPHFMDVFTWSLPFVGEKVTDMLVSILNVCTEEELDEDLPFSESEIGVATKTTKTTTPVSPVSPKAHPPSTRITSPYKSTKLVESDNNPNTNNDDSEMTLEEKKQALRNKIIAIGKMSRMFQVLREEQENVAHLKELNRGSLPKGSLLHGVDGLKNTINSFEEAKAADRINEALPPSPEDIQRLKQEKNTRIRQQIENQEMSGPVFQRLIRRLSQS
Sequence of ATP-dependent molecular chaperone HSP82 (C4YTQ8 whole entry, the tested form may be a part): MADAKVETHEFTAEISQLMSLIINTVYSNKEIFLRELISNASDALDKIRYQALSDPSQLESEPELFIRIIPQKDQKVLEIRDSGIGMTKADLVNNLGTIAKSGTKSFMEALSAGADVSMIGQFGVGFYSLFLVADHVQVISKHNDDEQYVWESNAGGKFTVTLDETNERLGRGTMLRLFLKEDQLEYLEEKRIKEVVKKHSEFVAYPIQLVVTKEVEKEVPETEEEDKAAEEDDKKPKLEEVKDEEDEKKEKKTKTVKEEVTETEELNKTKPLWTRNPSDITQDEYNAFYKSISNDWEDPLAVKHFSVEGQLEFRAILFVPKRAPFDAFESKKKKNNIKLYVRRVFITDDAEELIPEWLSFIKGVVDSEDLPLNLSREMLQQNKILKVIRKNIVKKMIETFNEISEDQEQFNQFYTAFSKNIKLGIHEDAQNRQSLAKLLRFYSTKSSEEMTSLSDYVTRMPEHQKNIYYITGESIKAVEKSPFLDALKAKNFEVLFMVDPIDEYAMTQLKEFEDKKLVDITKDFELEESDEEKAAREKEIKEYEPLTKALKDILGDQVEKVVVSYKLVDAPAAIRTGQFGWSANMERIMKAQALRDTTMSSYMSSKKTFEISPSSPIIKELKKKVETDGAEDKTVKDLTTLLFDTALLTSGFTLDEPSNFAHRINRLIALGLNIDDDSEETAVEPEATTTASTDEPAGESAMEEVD
Sequence of DNA dC->dU-editing enzyme APOBEC-3G (Q9HC16 whole entry): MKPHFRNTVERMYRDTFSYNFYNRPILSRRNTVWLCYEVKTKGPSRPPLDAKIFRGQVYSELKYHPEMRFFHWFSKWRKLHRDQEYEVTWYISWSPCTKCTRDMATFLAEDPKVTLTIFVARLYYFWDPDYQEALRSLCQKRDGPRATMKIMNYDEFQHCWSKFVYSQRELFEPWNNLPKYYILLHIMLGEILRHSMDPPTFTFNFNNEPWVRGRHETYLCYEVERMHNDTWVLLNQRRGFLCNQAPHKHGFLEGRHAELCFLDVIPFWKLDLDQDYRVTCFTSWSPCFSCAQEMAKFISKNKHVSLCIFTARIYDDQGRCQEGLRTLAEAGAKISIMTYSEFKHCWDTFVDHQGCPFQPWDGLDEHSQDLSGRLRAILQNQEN
Sequence of Tumor necrosis factor (P01375 whole entry, the tested form may be a part): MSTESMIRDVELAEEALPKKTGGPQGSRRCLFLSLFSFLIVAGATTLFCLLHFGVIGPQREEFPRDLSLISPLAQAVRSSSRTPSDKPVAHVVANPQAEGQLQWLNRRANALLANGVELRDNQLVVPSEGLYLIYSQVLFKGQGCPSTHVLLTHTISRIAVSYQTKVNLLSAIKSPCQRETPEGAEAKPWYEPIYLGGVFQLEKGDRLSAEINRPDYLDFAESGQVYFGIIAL
Sequence of DNA dC->dU-editing enzyme APOBEC-3A (P31941 whole entry): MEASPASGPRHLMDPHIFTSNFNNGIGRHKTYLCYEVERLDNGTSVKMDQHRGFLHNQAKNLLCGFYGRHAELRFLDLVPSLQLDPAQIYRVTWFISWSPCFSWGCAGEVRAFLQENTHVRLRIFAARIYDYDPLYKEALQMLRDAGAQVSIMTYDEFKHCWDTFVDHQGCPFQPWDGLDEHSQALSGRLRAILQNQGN

## C(=C\c1ccccc1)/CN1CCN(c2ncnc3c2oc2ccccc23)CC1
[1]
  EC50: > 160 µM (inconclusive)
[2]
  EC50: 41 nM (active)
[3]
  EC50: > 180 µM (inactive)
[4]
  EC50: > 160 µM (inactive)
[5]
  AC50: 1.98 µM (active)
[6]
  AC50: 65.4 µM (active)
[7]
  AC50: 570 nM (active)
[8]
  AC50: 25.9 µM (active)
[9]
  AC50: 9.31 µM (active)

## Cc1cc(NC(=O)CSc2nc(-c3ccccc3Cl)nc3c2c(=O)n(C)c(=O)n3C)no1
[10]
  EC50: > 99 µM (inactive)
[11]
  EC50: > 99 µM (inactive)

## Cc1ccc(NC(=O)c2ccccc2NS(=O)(=O)c2ccc(Cl)s2)cc1
[1]
  EC50: 20.5 µM (active)
[2]
  EC50: 215 nM (active)
[3]
  EC50: > 180 µM (inactive)
INS1
  AC50: 4.46 µM (active)
[4]
  EC50: 7.91 µM (active)

## CCSc1nnc(NC(=O)C2CCCN(S(=O)(=O)c3c[nH]cn3)C2)s1 (stereo unspecified)
HEK293 [12]
  IC50: > 67.5 µM (inactive)
[13]
  IC50: > 67.5 µM (inactive)

## Cc1cccc(-n2c(N)c(C(=O)N3CCN(C)CC3)sc2=S)c1
[14]
  IC50: > 100 µM (inactive)
[15]
  IC50: 3.32 µM (active)
[16]
  IC50: > 99 µM (inactive)
[17]
  IC50: 108 nM (active)
[18]
  IC50: > 100 µM (inactive)
[19]
  IC50: 3.6 µM (active) and 8.47 µM (active) and > 100 µM (inactive)
[20]
  IC50: 12.2 µM (active)
[21]
  IC50: 4.7 µM (active)
[22]
  IC50: 960 nM (active)
[23]
  IC50: > 99 µM (inactive)

## COC(=O)CSc1nc2ccc(C)cc2cc1C#N
[10]
  EC50: > 99 µM (inactive)
[11]
  EC50: > 99 µM (inactive)

## c1ccc(-c2csc3ncnc(NCc4ccccn4)c23)cc1
HEK293 [24]
  EC50: 3.17 µM (active)
HEK293 [25]
  IC50: 6.34 µM (active)
HEK293 [26]
  IC50: 16.3 µM (active)
HEK293 [27]
  IC50: 7.16 µM (active)
Tumor necrosis factor
  IC50: 4.23 µM (active)
[28]
  IC50: 3.2 µM (active)
HEK293 [29]
  IC50: 11.5 µM (active)

## Oc1c(/C=N/Cc2ccccc2)sc2ccccc12
HEK293 [12]
  IC50: > 22.5 µM (inactive)
[13]
  IC50: > 67.5 µM (inactive)
[30]
  IC50: > 66 µM (inactive)
[31]
  IC50: > 66 µM (inactive)

From ChEMBL document CHEMBL1201862, “PubChem BioAssay data set” (2004)
